Consider one compound from US20050054013A1, “Methods and products for identifying modulators of P2X7 receptor activity, and their use in the treatment of skeletal disorders” (Pfizer Inc, priority 2001, published 2005).

For one test, the system named is IL-6. The experiment in a line: In vivo cytokine production: IL-6 in peritoneal lavage of LPS-primed mice by ELISA. Conditions: LPS-primed mice subsequently challenged with ATP; 4 hour time point. Here is the method:
Groups of mice are injected intraperitoneally (ip) with 1 μg of LPS. […] Samples of peritoneal lavages are spun down, and the supernatants are collected and tested for the presence of IL-1β and IL-6 using ELISAs (Amersham Life Sciences, Arlington Heights, Va. and Endogen, Woburn, Mass., respectively).
IL-1 signaling may lead to the production of other cytokines such as IL-6 (Allen et al. (2000), J. Exp. Med. 191:859-869). […] The animals are incubated for an additional period (e.g., 4 hours) and peritoneal lavages are collected several times during the course of the incubation and analyzed for cytokines by ELISA. […] By 4 hours, however, IL-6 levels recovered from the LPS-PBS treated animals returned to baseline.

The next test concerns the target T1, P2X7 receptor (Mus musculus, UniProt Q9Z1M0).
T1 construct: endogenous in cells; host or cells: peritoneal macrophages isolated from wild-type animals
T1 sequence (Q9Z1M0 1-595): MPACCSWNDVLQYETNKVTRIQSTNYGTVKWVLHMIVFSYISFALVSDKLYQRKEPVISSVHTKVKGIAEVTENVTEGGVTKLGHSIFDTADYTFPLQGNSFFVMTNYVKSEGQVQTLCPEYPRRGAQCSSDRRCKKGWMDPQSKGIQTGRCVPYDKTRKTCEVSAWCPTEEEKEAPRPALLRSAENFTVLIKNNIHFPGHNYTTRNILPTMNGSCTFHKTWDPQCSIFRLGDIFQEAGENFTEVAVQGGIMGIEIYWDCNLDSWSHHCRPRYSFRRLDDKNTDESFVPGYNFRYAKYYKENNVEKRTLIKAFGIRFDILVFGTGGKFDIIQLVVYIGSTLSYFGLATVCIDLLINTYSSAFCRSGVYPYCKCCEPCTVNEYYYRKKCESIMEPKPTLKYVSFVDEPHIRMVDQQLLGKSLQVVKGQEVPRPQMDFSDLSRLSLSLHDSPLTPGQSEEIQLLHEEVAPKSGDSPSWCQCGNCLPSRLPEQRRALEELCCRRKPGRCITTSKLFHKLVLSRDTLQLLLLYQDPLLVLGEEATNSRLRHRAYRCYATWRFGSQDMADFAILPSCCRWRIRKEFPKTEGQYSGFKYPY
Put plainly: P2X7 receptor-mediated YoPro Yellow uptake in peritoneal macrophages. Type of test: cell-based. Conditions: peritoneal macrophages from wild-type animals, 5 mM ATP, extracellular YoPro Yellow. How it is done: This increase in fluorescence results from internalization of the dye molecules followed by their binding to DNA; when bound to DNA, the fluorescence intensity increases.
When assaying P2X7 receptor function using isolated macrophages, the peritoneal macrophages are washed with isotonic medium (15 mM HEPES, pH 7.2, 135 mM NaCl, 5 mM KCl, […], […]) by centrifugation and the resulting cell pellet is suspended in isotonic medium to achieve a final cell concentration of about 1×10^6 cells/ml. Fifty μl of this cell suspension is placed into the wells of a plate (e.g., Microfluor “B” U-bottom plate, Dynatech, Chantilly, Va.), and 50 μl of a fluorescent dye (e.g., 2 μM YoPro Yellow, Molecular Probes, Eugene, Oreg.) dissolved in the isotonic medium is added to each well. Test compounds or control vehicles are added to the wells with or without the addition of […]. Fluorescence is monitored as a function of time at […]. For YoPro Yellow dye, excitation is at 450 nm and emission is measured at 530 nm. Test compounds which stimulate P2X7 receptor activity increase fluorescence as compared to control samples that lack test compound.

A further test has as its system other P2X receptors. Conditions: cited from earlier work.

The structures appear in SMILES notation.

In the case of `Nc1ncnc2c1ncn2[C@@H]1O[C@H](COP(=O)(O)OP(=O)(O)OP(=O)(O)O)[C@@H](O)[C@H]1O` [ATP, adenosine triphosphate], the “lavage fluid IL-6, peak value” in the test with IL-6 was more than 25 ng/mL. Also, the “fluorescence intensity (YoPro Yellow internalization)” value on P2X7 receptor is recorded as “time dependent increase in fluorescence intensity”. The “ATP concentrations at which receptors activate” value in the test on other P2X receptors is listed as “less than or equal to 100 μM”.
